Here are results for six compounds from ChEMBL document CHEMBL1129128, “Synthesis of divalent -D-mannopyranosylated clusters having enhanced binding affinities towards concanavalin A and pea lectins” (Bioorg Med Chem Lett, 1996).

As a reminder, the IC50 is the concentration needed to halve the response being measured.

In experiment [1] the test system is Saccharomyces cerevisiae. In words: Inhibition of binding of concanavalin A to yeast mannan by compound was measured using peroxidase-labeled lectin assay, expressed relative to 2-Hydroxymethyl-6-methoxy-tetrahydro-pyran-3,4,5-triol.
The nature of experiment [2]: Inhibition of binding of concanavalin A to yeast mannan by compound was measured using peroxidase-labeled lectin assay,. Also on record: species or system Saccharomyces cerevisiae.
For experiment [3], the system named is Saccharomyces cerevisiae. Put plainly: Inhibition of binding of pea lectins to yeast mannan by compound was measured using peroxidase-labeled lectin assay, activity expressed relative to 2-Hydroxymethyl-6-methoxy-tetrahydro-pyran-3,4,5-triol.
Experiment [4] in a line: Inhibition of binding of pea lectins to yeast mannan by compound was measured using peroxidase-labeled lectin assay. The arrangement: species or system Saccharomyces cerevisiae.

Each structure is given as a SMILES string.

Turning to `CO[C@H]1O[C@H](CO)[C@@H](O)[C@H](O)[C@H]1O`, the Relative potency in the experiment on Saccharomyces cerevisiae [1] and with Saccharomyces cerevisiae [3] was 1 in each case. Further, the IC50 in experiment [2] was determined as 924 µM; in experiment [4], 3850 µM.
In the case of `O=C(O)c1cc(N/C(S)=N/CCSCCCO[C@H]2O[C@@H](CO)[C@@H](O)[C@H](O)[C@H]2O)cc(N/C(S)=N/CCSCCCO[C@H]2O[C@@H](CO)[C@@H](O)[C@H](O)[C@H]2O)c1`, the Relative potency with Saccharomyces cerevisiae [1] is 30.3; in the experiment on Saccharomyces cerevisiae [3] it was 20.8. Besides, the IC50 in experiment [2] turned out to be 30.5 µM; in experiment [4], 185 µM.
The corresponding values for `C=CCO[C@H]1O[C@@H](CO)[C@@H](O)[C@H](O)[C@H]1O` are 3.5, 4.1, 261 µM and 940 µM.
The corresponding values for `O=C(CCCCC/N=C(\S)Nc1ccc(O[C@H]2O[C@@H](CO)[C@@H](O)[C@H](O)[C@H]2O)cc1)Nc1cc(NC(=O)CCCCC/N=C(\S)Nc2ccc(O[C@H]3O[C@@H](CO)[C@@H](O)[C@H](O)[C@H]3O)cc2)cc(C(=O)O)c1` are 25, 6.7, 36.8 µM and 575 µM.
Consider `COC(=O)c1cc(N/C(S)=N/CCSCCCO[C@H]2O[C@@H](CO)[C@@H](O)[C@H](O)[C@H]2O)cc(N/C(S)=N/CCSCCCO[C@H]2O[C@@H](CO)[C@@H](O)[C@H](O)[C@H]2O)c1`, for which the Relative potency in the experiment on Saccharomyces cerevisiae [1] was 138; with Saccharomyces cerevisiae [3] it was 29.8. The 50% inhibitory concentration (IC50) is 6.7 µM in experiment [2] and 129 µM in experiment [4].
The corresponding values for `O=[N+]([O-])c1ccc(O[C@H]2O[C@H](CO)[C@@H](O)[C@H](O)[C@H]2O)cc1` are 8.7, 2.6, 106 µM and above 1500 µM.
